Laboratory results from ChEMBL document CHEMBL1146652, “Synthesis and CB1 receptor activities of novel arachidonyl alcohol derivatives” (Bioorg Med Chem Lett, 2004).

How the values were obtained:
[1] = target: Cannabinoid receptor 1 (Rattus norvegicus) (UniProt P20272); experiment: Maximal response of cannabinoid receptor to compound was evaluated using [35S]GTP-gamma-S-binding studies; format: functional
Cannabinoid receptor 1 = Cannabinoid receptor 1 (Rattus norvegicus, UniProt P20272); experiment: Cannabinoid receptor 1 dependent activity of compound was evaluated by using [35S]GTP-gamma-S-binding studies; format: functional
Sequence of Cannabinoid receptor 1 (P20272 whole entry): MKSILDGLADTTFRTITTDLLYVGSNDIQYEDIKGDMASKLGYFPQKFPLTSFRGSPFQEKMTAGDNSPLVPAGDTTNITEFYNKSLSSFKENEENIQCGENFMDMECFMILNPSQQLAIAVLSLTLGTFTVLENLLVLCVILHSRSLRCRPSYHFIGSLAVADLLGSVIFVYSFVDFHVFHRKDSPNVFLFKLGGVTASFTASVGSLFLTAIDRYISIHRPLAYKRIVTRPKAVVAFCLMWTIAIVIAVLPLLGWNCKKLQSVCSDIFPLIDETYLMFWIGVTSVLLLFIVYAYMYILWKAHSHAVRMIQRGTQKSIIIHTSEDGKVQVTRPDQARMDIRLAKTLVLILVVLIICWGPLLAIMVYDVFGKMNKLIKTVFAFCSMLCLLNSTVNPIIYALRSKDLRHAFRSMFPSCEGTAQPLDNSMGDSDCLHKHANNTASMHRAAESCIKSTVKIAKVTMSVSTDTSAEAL

Sequence of Cannabinoid receptor 1 (Rattus norvegicus) (P20272 whole entry): as above

| Structure (SMILES) | Emax [1] [%] | EC50 (Cannabinoid receptor 1) [µM] |
| --- | --- | --- |
| CCCCC/C=C\C/C=C\C/C=C\C/C=C\CCCCOC(=O)[C@@H](O)CO | 278 | 39.8 |
| CCCCC/C=C\C/C=C\C/C=C\C/C=C\CCCCOC(=O)[C@H](O)CO | 301 | 25.1 |
| CCCCC/C=C\C/C=C\C/C=C\C/C=C\CCCC(=O)NCCO | 380 |  |
